Converted amounts (≈) assume the structure as drawn. Counter-ions that a name gives are not always drawn. Like-named read-outs stand apart in the source and are kept apart here.

One assay deals with E. coli. Briefly: MIC (MHK), agar serial dilution on Iso-Sensitest agar. In kind it is cell-based. Particulars: for MIC: Escherichia coli, 20 h, read-out: MHK-Werte. An excerpt: (§1) Die minimalen Hemmkonzentrationen (MHK) der erfindungsgemäßen Verbindungen wurden per Reihenverdünnungsverfahren auf Iso-Sensitest Agar (Oxoid) bestimmt. Für jede Prüfsubstanz wurde eine Reihe von Agarplatten hergestellt, die bei jeweils doppelter Verdünnung abfallende Konzentrationen des Wirkstoffs enthielten. Die Agarplatten wurden mit einem Multipoint-Inokulator (Denley) beimpft. Zum Beimpfen wurden Übernachtkulturen der Erreger verwandt, die zuvor so verdünnt wurden, daß jeder Impfpunkt ca. 10^4 koloniebildende Partikel enthielt. Die beimpften Agarplatten wurden bei 37°C bebrütet, und das Keimwachstum wurde nach ca. 20 Stunden abgelesen. Der MHK-Wert (µg/ml) gibt die niedrigste Wirkstoffkonzentration an, bei der mit bloßem Auge kein Wachstum zu erkennen war. Die Erfassung der MHK-Werte für Mycoplasmen erfolgte mikroskopisch nach einer Inkubationszeit von 5 bis 7 Tagen.

For another assay, the system named is Salmonella spp. The description is as above. Particulars: for MIC: 20 h, Salmonella spp. S 9656, read-out: MHK-Werte; for MHK-Werte: Salmonella spp. S 9657. In kind it is cell-based.
From the text: as §1

Another assay concerns Staph. spp. The description is as above. In kind it is cell-based. The following applies: for MIC: 20 h, read-out: MHK-Werte.
The next assay deals with Bordetella. The assay is described as above. The following applies: Bordetella 9213 GE; for MIC: 20 h, read-out: MHK-Werte. In kind it is cell-based.
The next assay concerns B. bronchiseptica. Described as above. In kind it is cell-based. Particulars: for MIC: Bordetella bronchiseptica, 20 h, B. bronchiseptica B 9601, read-out: MHK-Werte.
The next assay deals with Pseudomonas spp. The description is as above. In kind it is cell-based. Particulars: 20 h; Pseudomonas spp. P 9510; read-out: MHK-Werte.
The next assay concerns S. agalactiae. The description is as above. It is filed as cell-based.
For the next assay, the system named is S. suis. Described as above. In kind it is cell-based. Particulars: Streptococcus suis, 20 h, read-out: MHK-Werte.
A further assay relates to M. agalactiae PG 2. The experiment in a line: MIC (MHK) against mycoplasmas, microscopic reading. It is filed as cell-based. Particulars: Mycoplasmopsis agalactiae, PG2, incubation 5 to 7 days, read-out: MHK-Werte gegen Mycoplasmen.
The subject of the next assay is M. bovis "Donetta". The experiment in a line: microbe, parasite or virus in culture. It is filed as cell-based. Particulars: read-out: MHK-Werte gegen Mycoplasmen.
In a further assay the test system is M. bovirhinis PG 43. The experiment in a line: MIC (MHK) against mycoplasmas, microscopic reading. In kind it is cell-based. Particulars: incubation 5 to 7 days, read-out: MHK-Werte gegen Mycoplasmen.
The test system of another assay is M. gallisepticum PG 31. The experiment in a line: MIC (MHK) against mycoplasmas, microscopic reading. It is filed as cell-based. Particulars: Mycoplasmoides gallisepticum, PG31, incubation 5 to 7 days, read-out: MHK-Werte gegen Mycoplasmen.
Another assay deals with M. iowae 695. Briefly: MIC (MHK) against mycoplasmas, microscopic reading. The following applies: incubation 5 to 7 days, read-out: MHK-Werte gegen Mycoplasmen. It is filed as cell-based.
Assay [1] relates to E.-coli-Stammes 6200 Serovar 078. Briefly: In vivo antibacterial efficacy in E. coli infected chicks (mortality). Details: species or system Hühner-Küken. The following applies: Escherichia coli; chicks infected intrathoracally, oral dose immediately after infection, mortality 48 h after infection. The text has this: Die antibakterielle Wirksamkeit der erfindungsgemäßen Verbindung in-vivo wurde folgendermaßen bestimmt. Zwei bis […] (Lohmann-Hybriden, Fa. Lohmann, Cuxhaven) wurden mit 5 x 10^6 KBE/ml des E.-coli-Stammes 6200 Serovar 078 (Prof. Hinz, Hannover) intrathorakal infiziert. Unmittelbar nach der Infektion erhielten jeweils Gruppen von 10 bis 20 Küken den Wirkstoff oral appliziert. Ausgetestet wurden 6 Verdünnungen einer geometrischen Verdünnungsreihe. Die Auswertung erfolgte durch […] 48 Stunden nach der Infektion. Die Wirksamkeit der betreffenden Verbindung wird als ED90 in mg/kg angegeben.

Consider `C=CC1CN(c2c(F)cc3c(=O)c(C(=O)O)cn(C4CC4)c3c2Cl)CCN1` (centres unmarked) [Bsp. 1, 8-Chlor-1-cyclopropyl-6-fluor-1,4-dihydro-4-oxo-7-(3-vinyl-1,4-piperazin-1-yl)-3-chinolincarbonsäure], for which the MIC in the assay on E. coli (E. coli 21 Bui) worked out at 8 µg/mL (≈ 20.4 µM); in the assay on E. coli (E. coli 3614 GE), 4 µg/mL (≈ 10.2 µM); in the assay on E. coli (E. coli 9430 LH) it was 16 µg/mL (≈ 40.8 µM); in the assay on E. coli (E. coli Ec 9675), 1 µg/mL (≈ 2.55 µM); in the assay with E. coli (E. coli G 293 LH), 8 µg/mL (≈ 20.4 µM); in the assay with Salmonella spp. it was 0.5 µg/mL (≈ 1.28 µM). Besides, the MIC with Staph. spp. (Staph. spp. 2706) came out at 0.06 µg/mL (≈ 0.153 µM); in the assay on Staph. spp. (Staph. spp. 3781 GE), 1 µg/mL (≈ 2.55 µM); in the assay with Staph. spp. (Staph. spp. B 5520 TGD) it was 1 µg/mL (≈ 2.55 µM); with Staph. spp. (Staph. spp. G 600 LH) it was 1 µg/mL (≈ 2.55 µM); in the assay with Bordetella, 8 µg/mL (≈ 20.4 µM); with B. bronchiseptica, 0.25 µg/mL (≈ 0.638 µM). For the same molecule, the MIC turned out to be 0.5 µg/mL (≈ 1.28 µM) with Pseudomonas spp.; 0.5 µg/mL (≈ 1.28 µM) in the assay with S. agalactiae (Streptococcus agalactiae, 20 h, S. agalactiae Scc 9513, read-out: MHK-Werte); 0.06 µg/mL (≈ 0.153 µM) in the assay on S. suis (S. suis Scc 9588); 0.03 µg/mL (≈ 0.0766 µM) in the assay with S. suis (S. suis Scc 9591); 0.25 µg/mL (≈ 0.638 µM) in the assay with S. suis (S. suis Scc 9592); 0.03 µg/mL (≈ 0.0766 µM) in the assay on S. suis (S. suis Scc 9595). The MIC is 0.03 µg/mL (≈ 0.0766 µM) in the assay on S. suis (S. suis Scc 9603); 0.06 µg/mL (≈ 0.153 µM) in the assay on M. agalactiae PG 2; 0.06 µg/mL (≈ 0.153 µM) in the assay with M. bovis "Donetta"; 0.06 µg/mL (≈ 0.153 µM) in the assay on M. bovirhinis PG 43; 0.03 µg/mL (≈ 0.0766 µM) in the assay with M. gallisepticum PG 31; 0.03 µg/mL (≈ 0.0766 µM) in the assay with M. iowae 695. Also, the MHK-Werte with Salmonella spp. is 0,5 µl/ml; with B. bronchiseptica (B. bronchiseptica B 9610), 0,25 µl/ml; with B. bronchiseptica (B. bronchiseptica B 9613), 0,25 µl/ml; with B. bronchiseptica (B. bronchiseptica B 9618), 0,25 µl/ml; with S. agalactiae (S. agalactiae Scc 9514), 0,5 µl/ml; in the assay with S. agalactiae (S. agalactiae Scc 9515), 0,5 µl/ml. Moreover, the MHK-Werte in the assay with S. agalactiae (S. agalactiae Scc 9520) and in the assay on S. agalactiae (S. agalactiae Scc 9524) was 0,5 µl/ml in each case. This molecule yielded an ED90 in assay [1] of 1.25 mg/kg.
On to `C=CC1CN(c2c(F)c(N)c3c(=O)c(C(=O)O)cn(C4CC4)c3c2F)CCN1` (centres unmarked) [Bsp. 4, 5-Amino-1-cyclopropyl-6,8-difluor-1,4-dihydro-4-oxo-7-(3-vinyl-1,4-piperazin-1-yl)-chinolincarbonsäure], for which the MIC in the assay on E. coli (E. coli 21 Bui) is 16 µg/mL (≈ 41 µM); with E. coli (E. coli 3614 GE), 16 µg/mL (≈ 41 µM); in the assay with E. coli (E. coli 9430 LH) it was 64 µg/mL (≈ 164 µM); in the assay with E. coli (E. coli Ec 9675), 0.5 µg/mL (≈ 1.28 µM); in the assay on E. coli (E. coli G 293 LH) it was 32 µg/mL (≈ 82 µM); in the assay on Salmonella spp., 0.5 µg/mL (≈ 1.28 µM). The MIC with Staph. spp. (Staph. spp. 3781 GE) came out at 4 µg/mL (≈ 10.2 µM); with Staph. spp. (Staph. spp. B 5520 TGD), 4 µg/mL (≈ 10.2 µM); in the assay with Staph. spp. (Staph. spp. G 600 LH), 4 µg/mL (≈ 10.2 µM); with Staph. spp. (Staph. spp. ST 9640), 0.06 µg/mL (≈ 0.154 µM); in the assay on B. bronchiseptica it was 0.25 µg/mL (≈ 0.64 µM); in the assay on M. agalactiae PG 2, 0.03 µg/mL (≈ 0.0768 µM). The MIC was determined as 0.25 µg/mL (≈ 0.64 µM) in the assay with M. bovirhinis PG 43, 0.03 µg/mL (≈ 0.0768 µM) in the assay with M. gallisepticum PG 31 and 0.06 µg/mL (≈ 0.154 µM) with M. iowae 695. Besides, the MHK-Werte in the assay on Salmonella spp. is 0,5 µl/ml; in the assay on B. bronchiseptica (B. bronchiseptica B 9610), 0,25 µl/ml; in the assay on B. bronchiseptica (B. bronchiseptica B 9613), 0,25 µl/ml; in the assay on B. bronchiseptica (B. bronchiseptica B 9618) it was 0,25 µl/ml.
`C=CC1CN(c2c(F)cc3c(=O)c(C(=O)O)cn(C4CC4)c3c2Cl)CCN1/C=C/C(=O)OCC` (centres unmarked) [Bsp. 3, 8-Chlor-1-cyclopropyl-7-[4-(2-ethoxycarbonyl-vinyl)-3-vinyl-1,4-piperazin-1-yl]-6-fluor-1,4-dihydro-4-oxo-3-chinolincarbonsäure]: the MIC in the assay on E. coli (E. coli 21 Bui) turned out to be 8 µg/mL (≈ 16.3 µM); with E. coli (E. coli 3614 GE), 8 µg/mL (≈ 16.3 µM); in the assay with E. coli (E. coli 9430 LH) it was 32 µg/mL (≈ 65.3 µM); in the assay on E. coli (E. coli G 293 LH) it was 16 µg/mL (≈ 32.7 µM); with Staph. spp. (Staph. spp. 2706), 0.25 µg/mL (≈ 0.51 µM); in the assay with Staph. spp. (Staph. spp. 3781 GE), 2 µg/mL (≈ 4.08 µM). Besides, the figures for the MIC in the assay on Staph. spp. (Staph. spp. B 5520 TGD), with Staph. spp. (Staph. spp. G 600 LH) and in the assay with Bordetella were 2 µg/mL (≈ 4.08 µM), 2 µg/mL (≈ 4.08 µM) and 16 µg/mL (≈ 32.7 µM), respectively.
On to `C=CC1CN(c2c(F)cc3c(=O)c(C(=O)O)cn(C4CC4)c3c2Cl)CCN1` (centres unmarked) [Bsp. 2, 8-Chlor-1-cyclopropyl-6-fluor-1,4-dihydro-4-oxo-7-(3-vinyl-1,4-piperazin-1-yl)-3-chinolincarbonsäure-Hydrochlorid], for which the MHK-Werte in the assay on E. coli (E. coli 21 Bui) is reported as 4 µl/ml; with E. coli (E. coli 3614 GE), 4 µl/ml; in the assay on E. coli (E. coli 9430 LH), 16 µl/ml; in the assay with E. coli (E. coli G 293 LH) it was 4 µl/ml; in the assay on Staph. spp. (Staph. spp. 3781 GE) it was 1 µl/ml; in the assay on Bordetella it was 8 µl/ml.
As for `C=CC1CN(c2cc3c(cc2F)c(=O)c(C(=O)O)cn3C2CC2)CCN1` (centres unmarked) [Bsp. 102 aus EP-A 230 053, 1-Cyclopropyl-6-fluor-1,4-dihydro-4-oxo-7-(3-vinyl-1,4-piperazin-1-yl)-3-chinoloncarbonsäure, reference compound], in assay [1], the ED90 lay within 5 to 10 mg/kg.

Values taken from patent EP0907648B1, “QUINOLONE CARBOXYLIC ACIDS SUBSTITUTED BY 7-(3-VINYL-1,4-PIPERAZINE-1-YL)” (BAYER AG, priority 1996, dated 1998).
